In patent US7026355B2, “Use of rhein or diacerhein compounds for the treatment or prevention of vascular diseases” (Transition Therapeutics Inc., priority 2001, dated 2006):
Numbered stars: 1 amine (or outer) side, 2 acyl side, 3 side chain; on linkers, the order of the positions; unused ones are H or OH. Bridge positions count the residues as written; N and C are the ends. Square brackets hold non-standard residues; d marks the D form. Peptide text beside a SMILES is read from it. I, II: the chains in the order shown. Actinocin(9to1) = Cc1c2oc3c(C)ccc(C(=O)[*:1])c3nc-2c(C(=O)[*:2])c(N)c1=O; NMeV = CN[C@H](C(=O)O)C(C)C; Sar = CNCC(=O)O

Experiments:
[1] = system: A-10 cells; test: CellTiter 96 AQueous One Solution Cell Proliferation Assay; assay type: cell-based, Rat; conditions: for Measure of Proliferative Activity (Absorbance at 490 nm): 24 h, no treatment 0.775; for proliferative activity as compared to untreated cells: concentration higher than 10^−7 M
Experimental: A-10 cells were seeded at 1.0×10^3 cells/well in 96 well plates using Dulbecco's Modified Eagle Medium™ (Gibco BRL Cat. # 11885-084), 10% FBS and 1% Antibiotic Antimycotic (Gibco BRL Cat. # 15240) and allowed to grow overnight. Prior to treatment, cells were washed and the culture medium was replaced with culture medium containing either rhein or diacerhein at varying concentrations ranging from 10^−4 to 10^−8M.
(§1) The CellTiter 96® AQueous One Solution Cell Proliferation Assay (Promega) was used as a colorimetric method for determining the number of viable cells in proliferation. Cell proliferation assays were performed by adding a small amount of the CellTiter 96® AQueous One Solution Reagent directly to culture wells, incubating for 1–4 hours and then recording absorbance at 490 nm with a 96 well plate reader. The quantity of formazan product as measured by the amount of 490 nm absorbance is known in the art to be directly proportional to the number of living cells in the culture. For the assay, cells were incubated with rhein or diacerhein for 24 h. In addition, cells from selected concentrations are also treated with rhein or diacerhein and are incubated for 1–3 days. The cells are harvested and counted using a hemocytometer. Trypan blue staining was carried out to determine % of viable cells vs dead cells.

[2] = system: A-10 cells; test: Trypan blue staining, % of viable cells vs dead cells; assay type: cell-based; conditions: no treatment 96.2%
Experimental: as §1

[3] = system: aortic smooth muscle cells; test: prolonged incubation (1-3 days), cells counted with a hemocytometer; assay type: cell-based, Rat
Experimental: as §1
Intimal smooth muscle cell (SMC) proliferation plays a key role in atherosclerosis and restenosis following vascular injury. Therefore, rhein or diacerhein is predicted to effectively treat these disease states.

[4] = clinical trials of actinomycin-D eluting stents; cited from earlier work
[5] = system: iron regulatory protein; conditions: inflamed human monocytes; cited from earlier work
[6] = 5 to 50 mg/kg for periods as long as 50 weeks; cited from earlier work
[7] = system: Rat aortic smooth muscle cells (A-10 cells); test: in vitro assay of smooth muscle cell migration after scrape injury; assay type: cell-based; conditions: incubation 20 h
Experimental: The following in vitro assay was conducted to illustrate the effect of diacerhein on smooth muscle cell migration. Increased smooth muscle cell migration following injury is one of the predominant causes of obstruction of the vascular system following stenting and other vascular procedures.
Rat aortic smooth muscle cells (A-10 cells) were seeded at 2.5×10^5 cells/well in 6 well plates using Dulbecco's Modified Eagle Medium™ (Gibco BRL Cat. # 11885-084), 10% FBS and 1% Antibiotic Antimycotic (Gibco BRL Cat. # 15240). Confluency of cells after about 8 h was between 80˜90%. Cells were injured with the single edge cell scraper (one injury/well) then washed twice with PBS and treated with diacerhein at concentrations ranging from 50 μM to 100 μM. Images were taken using a X5 modulation objective (Zeiss, Germany) attached to a Zeiss Axiovert 100 inverted microscope equipped with Hoffman Modulation contrast optical filters (Greenvale, N.Y.).
The images were taken at zero time and following the incubation of smooth muscle cells with diacerhein for a period of 20 h.

[8] = system: prostaglandin E2 synthesis; conditions: cited from earlier work

O=C(O)c1cc(O)c2c(c1)C(=O)c1cccc(O)c1C2=O [Rhein, 9,10-dihydro-4,5-dihydroxy-9,10-dioxo-2-anthracenecarboxylic acid]
Measure of Proliferative Activity (Absorbance at 490 nm) ([1]; Treatment with 2.5 × 10^−5 M): 0.577
Measure of Proliferative Activity (Absorbance at 490 nm) ([1]; Treatment with 5.0 × 10^−5 M): 0.518
Measure of Proliferative Activity (Absorbance at 490 nm) ([1]; Treatment with 7.5 × 10^−5 M): 0.460
Measure of Proliferative Activity (Absorbance at 490 nm) ([1]; Treatment with 10^−4 M): 0.430
Measure of Proliferative Activity (Absorbance at 490 nm) ([1]; Treatment with 10^−5 M): 0.675
Measure of Proliferative Activity (Absorbance at 490 nm) ([1]; Treatment with 10^−6 M): 0.738
Measure of Proliferative Activity (Absorbance at 490 nm) ([1]; Treatment with 10^−7 M): 0.891
proliferative activity as compared to untreated cells [1]: decrease in proliferative activity
Percentage of viable cells ([2]; Treatment with 10^−4 M): 97.1%
Percentage of viable cells ([2]; Treatment with 10^−5 M): 96.0%
Percentage of viable cells ([2]; Treatment with 10^−6 M): 97.5%
anti-proliferative activity on prolonged incubation (FIG. 2) [3]: anti-proliferative activity

Cc1c2oc3c(C)ccc(C(=O)N[C@@H]4C(=O)N[C@H](C(C)C)C(=O)N5CCC[C@H]5C(=O)N(C)CC(=O)N(C)[C@@H](C(C)C)C(=O)O[C@@H]4C)c3nc-2c(C(=O)N[C@@H]2C(=O)N[C@H](C(C)C)C(=O)N3CCC[C@H]3C(=O)N(C)CC(=O)N(C)[C@@H](C(C)C)C(=O)O[C@@H]2C)c(N)c1=O [actinomycin D] (I: T[dV]P[Sar][NMeV] / II: T[dV]P[Sar][NMeV]; ester I:1-I:C, II:1-II:C; linker I:N-II:N via Actinocin(9to1))
prevention of restenosis [4]: ineffectiveness

CC(=O)Oc1cccc2c1C(=O)c1c(OC(C)=O)cc(C(=O)O)cc1C2=O [Diacerhein, 4,5-bis(acetyloxy)-9,10-dihydro-4,5dihydroxy-9,10-dioxo-2-anthracenecarboxylic acid]
iron regulatory protein activation [5]: inhibits iron regulatory protein activation
severity of osteoarthritis [6]: reduced the severity of osteoarthritis
Measure of Proliferative Activity (Absorbance at 490 nm) ([1]; Treatment with 2.5 × 10^−5 M): 0.561
Measure of Proliferative Activity (Absorbance at 490 nm) ([1]; Treatment with 5.0 × 10^−5 M): 0.419
Measure of Proliferative Activity (Absorbance at 490 nm) ([1]; Treatment with 7.5 × 10^−5 M): 0.408
Measure of Proliferative Activity (Absorbance at 490 nm) ([1]; Treatment with 10^−4 M): 0.380
Measure of Proliferative Activity (Absorbance at 490 nm) ([1]; Treatment with 10^−5 M): 0.646
Measure of Proliferative Activity (Absorbance at 490 nm) ([1]; Treatment with 10^−6 M): 0.710
Measure of Proliferative Activity (Absorbance at 490 nm) ([1]; Treatment with 10^−7 M): 0.738
proliferative activity as compared to untreated cells [1]: decrease in proliferative activity
Percentage of viable cells ([2]; Treatment with 10^−4 M): 97.0%
Percentage of viable cells ([2]; Treatment with 10^−5 M): 97.5%
Percentage of viable cells ([2]; Treatment with 10^−6 M): 96.2%
migration of smooth muscle cells ([7]; 50 μM): significantly inhibited
migration of smooth muscle cells ([7]; 100 μM): significantly inhibited
prostaglandin E2 synthesis [8]: stimulates prostaglandin E2 synthesis
anti-proliferative activity on prolonged incubation (FIG. 2) [3]: anti-proliferative activity
